Reference: ChEMBL document CHEMBL3885861, “Open TG-GATES”

Species on record: Rattus norvegicus
Assay: Open TG-GATES - Regimen: Single
Format: toxicity, organism-based, Sprague-Dawley
Design: regimen Single, gender Male, age 6 weeks
Conditions: in vivo, po, route gavage; for APTT / Bas / Eos / Fbg / Hb / Ht / Lym / MCH / MCHC / MCV / Mono / Neu / PT / Plat / RBC / Ret / WBC: tissue Blood; for KIDNEY_L / KIDNEY_R / KIDNEY_TOTAL: tissue Kidney; for ALP / ALT / AST / CRE / Cl / DBIL / GLC / IP / K / LDH / Na / PL / RALB / TBIL / TC / TG / TP / gamma-GTP: tissue Plasma

COc1cc2c(c(OC)c1OC)-c1ccc(OC)c(=O)cc1[C@@H](NC(C)=O)CC2 [COLCHICINE]
APTT (2 mg/kg, 3 h, dose level Low): 16.6 s | Bas (2 mg/kg, 3 h, dose level Low): 0% | Eos (2 mg/kg, 3 h, dose level Low): 1% | Fbg (2 mg/kg, 3 h, dose level Low): 218.6 mg/dL | Hb (2 mg/kg, 3 h, dose level Low): 13.5 g/dL | Ht (2 mg/kg, 3 h, dose level Low): 40.7% | Lym (2 mg/kg, 3 h, dose level Low): 84.4% | MCH (2 mg/kg, 3 h, dose level Low): 21.9 pg | MCHC (2 mg/kg, 3 h, dose level Low): 33.2% | MCV (2 mg/kg, 3 h, dose level Low): 66.1 fL | Mono (2 mg/kg, 3 h, dose level Low): 6.2% | Neu (2 mg/kg, 3 h, dose level Low): 8.8% | PT (2 mg/kg, 3 h, dose level Low): 11.8 s | Plat (2 mg/kg, 3 h, dose level Low): 109.4 x10_4/uL | RBC (2 mg/kg, 3 h, dose level Low): 616.8 x10_4/ul | Ret (2 mg/kg, 3 h, dose level Low): 10.2% | WBC (2 mg/kg, 3 h, dose level Low): 106.7 x10_2/uL | KIDNEY_L (2 mg/kg, 3 h, dose level Low): 1 g | KIDNEY_R (2 mg/kg, 3 h, dose level Low): 1 g | KIDNEY_TOTAL (2 mg/kg, 3 h, dose level Low): 2 g | ALP (2 mg/kg, 3 h, dose level Low): 946.8 IU/L | ALT (2 mg/kg, 3 h, dose level Low): 41.6 IU/L | AST (2 mg/kg, 3 h, dose level Low): 84.4 IU/L | CRE (2 mg/kg, 3 h, dose level Low): 0.5 mg/dL | Cl (2 mg/kg, 3 h, dose level Low): 104 meq/L | DBIL (2 mg/kg, 3 h, dose level Low): 0.01 mg/dL | GLC (2 mg/kg, 3 h, dose level Low): 199.8 mg/dL | IP (2 mg/kg, 3 h, dose level Low): 9.3 mg/dL | K (2 mg/kg, 3 h, dose level Low): 4.7 meq/L | LDH (2 mg/kg, 3 h, dose level Low): 137.8 IU/L | Na (2 mg/kg, 3 h, dose level Low): 140.2 meq/L | PL (2 mg/kg, 3 h, dose level Low): 143.6 mg/dL | RALB (2 mg/kg, 3 h, dose level Low): 3.7 g/dL | TBIL (2 mg/kg, 3 h, dose level Low): 0.4 mg/dL | TC (2 mg/kg, 3 h, dose level Low): 80.6 mg/dL | TG (2 mg/kg, 3 h, dose level Low): 57.6 mg/dL | TP (2 mg/kg, 3 h, dose level Low): 5.5 g/dL | gamma-GTP (2 mg/kg, 3 h, dose level Low): 1.8 IU/L | TERMINAL_BW (2 mg/kg, 6 h, dose level Low): 217.7 g | APTT (2 mg/kg, 6 h, dose level Low): 16.3 s | Bas (2 mg/kg, 6 h, dose level Low): 0% | Eos (2 mg/kg, 6 h, dose level Low): 1% | Fbg (2 mg/kg, 6 h, dose level Low): 218.8 mg/dL | Hb (2 mg/kg, 6 h, dose level Low): 13.4 g/dL | Ht (2 mg/kg, 6 h, dose level Low): 40.8% | Lym (2 mg/kg, 6 h, dose level Low): 81% | MCH (2 mg/kg, 6 h, dose level Low): 21.6 pg | MCHC (2 mg/kg, 6 h, dose level Low): 32.7% | MCV (2 mg/kg, 6 h, dose level Low): 65.9 fL | Mono (2 mg/kg, 6 h, dose level Low): 6.8% | Neu (2 mg/kg, 6 h, dose level Low): 11.2% | PT (2 mg/kg, 6 h, dose level Low): 11.9 s | Plat (2 mg/kg, 6 h, dose level Low): 109.8 x10_4/uL | RBC (2 mg/kg, 6 h, dose level Low): 620 x10_4/ul | Ret (2 mg/kg, 6 h, dose level Low): 9.8% | WBC (2 mg/kg, 6 h, dose level Low): 115.2 x10_2/uL | KIDNEY_L (2 mg/kg, 6 h, dose level Low): 0.9 g | KIDNEY_R (2 mg/kg, 6 h, dose level Low): 0.9 g | KIDNEY_TOTAL (2 mg/kg, 6 h, dose level Low): 1.9 g | ALT (2 mg/kg, 6 h, dose level Low): 40.8 IU/L | AST (2 mg/kg, 6 h, dose level Low): 81.8 IU/L | CRE (2 mg/kg, 6 h, dose level Low): 0.5 mg/dL | Cl (2 mg/kg, 6 h, dose level Low): 104.4 meq/L | DBIL (2 mg/kg, 6 h, dose level Low): 0.03 mg/dL | GLC (2 mg/kg, 6 h, dose level Low): 188.6 mg/dL | IP (2 mg/kg, 6 h, dose level Low): 9.8 mg/dL | K (2 mg/kg, 6 h, dose level Low): 4.7 meq/L | LDH (2 mg/kg, 6 h, dose level Low): 113.6 IU/L | Na (2 mg/kg, 6 h, dose level Low): 140.2 meq/L | PL (2 mg/kg, 6 h, dose level Low): 131.6 mg/dL | RALB (2 mg/kg, 6 h, dose level Low): 3.7 g/dL | TBIL (2 mg/kg, 6 h, dose level Low): 0.4 mg/dL | TC (2 mg/kg, 6 h, dose level Low): 73 mg/dL | TG (2 mg/kg, 6 h, dose level Low): 49.6 mg/dL | TP (2 mg/kg, 6 h, dose level Low): 5.5 g/dL | gamma-GTP (2 mg/kg, 6 h, dose level Low): 1.2 IU/L | TERMINAL_BW (2 mg/kg, 9 h, dose level Low): 215.3 g | APTT (2 mg/kg, 9 h, dose level Low): 16.2 s | Bas (2 mg/kg, 9 h, dose level Low): 0% | Eos (2 mg/kg, 9 h, dose level Low): 0.8% | Fbg (2 mg/kg, 9 h, dose level Low): 212.4 mg/dL | Hb (2 mg/kg, 9 h, dose level Low): 12.9 g/dL | Ht (2 mg/kg, 9 h, dose level Low): 39% | Lym (2 mg/kg, 9 h, dose level Low): 72.2% | MCH (2 mg/kg, 9 h, dose level Low): 21.2 pg | MCHC (2 mg/kg, 9 h, dose level Low): 33.1% | MCV (2 mg/kg, 9 h, dose level Low): 64.1 fL | Mono (2 mg/kg, 9 h, dose level Low): 11.8% | Neu (2 mg/kg, 9 h, dose level Low): 15.6% | PT (2 mg/kg, 9 h, dose level Low): 11.7 s | Plat (2 mg/kg, 9 h, dose level Low): 114.1 x10_4/uL | RBC (2 mg/kg, 9 h, dose level Low): 609.6 x10_4/ul | Ret (2 mg/kg, 9 h, dose level Low): 9.8% | WBC (2 mg/kg, 9 h, dose level Low): 101.3 x10_2/uL | KIDNEY_L (2 mg/kg, 9 h, dose level Low): 1 g | KIDNEY_R (2 mg/kg, 9 h, dose level Low): 1 g | KIDNEY_TOTAL (2 mg/kg, 9 h, dose level Low): 2 g | ALP (2 mg/kg, 9 h, dose level Low): 888 IU/L | ALT (2 mg/kg, 9 h, dose level Low): 47.6 IU/L | AST (2 mg/kg, 9 h, dose level Low): 93.4 IU/L | CRE (2 mg/kg, 9 h, dose level Low): 0.5 mg/dL | Cl (2 mg/kg, 9 h, dose level Low): 105.2 meq/L | DBIL (2 mg/kg, 9 h, dose level Low): 0.072 mg/dL | GLC (2 mg/kg, 9 h, dose level Low): 189.2 mg/dL | IP (2 mg/kg, 9 h, dose level Low): 9.4 mg/dL | K (2 mg/kg, 9 h, dose level Low): 4.8 meq/L | LDH (2 mg/kg, 9 h, dose level Low): 115 IU/L | Na (2 mg/kg, 9 h, dose level Low): 137.4 meq/L | PL (2 mg/kg, 9 h, dose level Low): 130 mg/dL | RALB (2 mg/kg, 9 h, dose level Low): 3.7 g/dL | TBIL (2 mg/kg, 9 h, dose level Low): 0.4 mg/dL | TC (2 mg/kg, 9 h, dose level Low): 80.4 mg/dL | TG (2 mg/kg, 9 h, dose level Low): 36.2 mg/dL | TP (2 mg/kg, 9 h, dose level Low): 5.4 g/dL | gamma-GTP (2 mg/kg, 9 h, dose level Low): 1.4 IU/L | TERMINAL_BW (2 mg/kg, 24 h, dose level Low): 231.9 g | APTT (2 mg/kg, 24 h, dose level Low): 17.8 s | Bas (2 mg/kg, 24 h, dose level Low): 0% | Eos (2 mg/kg, 24 h, dose level Low): 1% | Fbg (2 mg/kg, 24 h, dose level Low): 213 mg/dL | Hb (2 mg/kg, 24 h, dose level Low): 12.8 g/dL | Ht (2 mg/kg, 24 h, dose level Low): 38.5% | Lym (2 mg/kg, 24 h, dose level Low): 79.6% | MCH (2 mg/kg, 24 h, dose level Low): 22.1 pg | MCHC (2 mg/kg, 24 h, dose level Low): 33.3% | MCV (2 mg/kg, 24 h, dose level Low): 66.4 fL | Mono (2 mg/kg, 24 h, dose level Low): 7.6% | Neu (2 mg/kg, 24 h, dose level Low): 11.8% | PT (2 mg/kg, 24 h, dose level Low): 11.3 s | Plat (2 mg/kg, 24 h, dose level Low): 108 x10_4/uL | RBC (2 mg/kg, 24 h, dose level Low): 580.6 x10_4/ul | Ret (2 mg/kg, 24 h, dose level Low): 9.1% | WBC (2 mg/kg, 24 h, dose level Low): 127.4 x10_2/uL | KIDNEY_L (2 mg/kg, 24 h, dose level Low): 1.1 g | KIDNEY_R (2 mg/kg, 24 h, dose level Low): 1.1 g | KIDNEY_TOTAL (2 mg/kg, 24 h, dose level Low): 2.1 g | ALP (2 mg/kg, 24 h, dose level Low): 972.6 IU/L | ALT (2 mg/kg, 24 h, dose level Low): 37.2 IU/L | AST (2 mg/kg, 24 h, dose level Low): 69 IU/L | CRE (2 mg/kg, 24 h, dose level Low): 0.6 mg/dL | Cl (2 mg/kg, 24 h, dose level Low): 103.4 meq/L | DBIL (2 mg/kg, 24 h, dose level Low): 0.05 mg/dL | GLC (2 mg/kg, 24 h, dose level Low): 201.2 mg/dL | IP (2 mg/kg, 24 h, dose level Low): 6.6 mg/dL | K (2 mg/kg, 24 h, dose level Low): 4.4 meq/L | LDH (2 mg/kg, 24 h, dose level Low): 113 IU/L | Na (2 mg/kg, 24 h, dose level Low): 139 meq/L | PL (2 mg/kg, 24 h, dose level Low): 156.6 mg/dL | RALB (2 mg/kg, 24 h, dose level Low): 3.8 g/dL | TBIL (2 mg/kg, 24 h, dose level Low): 0.4 mg/dL | TC (2 mg/kg, 24 h, dose level Low): 83.6 mg/dL | TG (2 mg/kg, 24 h, dose level Low): 125.8 mg/dL | TP (2 mg/kg, 24 h, dose level Low): 5.7 g/dL | gamma-GTP (2 mg/kg, 24 h, dose level Low): 1 IU/L | TERMINAL_BW (5 mg/kg, 3 h, dose level Middle): 224.6 g
